Source: patent US9102614B2, “Naphth-2-ylacetic acid derivatives to treat AIDS” (Gilead Sciences, Inc., priority 2010, dated 2015)

System: HIV-IIIb
Experiment: Test A: Antiviral Assays in MT4 Cells
Type: cell-based
Conditions: Human immunodeficiency virus 1, IIIB, MT4, 120 h, MT-4 cells infected with HIV-IIIb (0.004 m.o.i.), 5 days of incubation, CellTiter-Glo chemiluminescence readout; read-out: EC50
Summary of the method: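 MT-4 cells pre-infected with HIV-IIIb (0.004 m.o.i.) at 37 °C, then plated with 3-fold serially diluted compound (10 concentrations, quadruplicate, RPMI 1640/10% FBS). After 5 days at 37 °C, cell viability read by CellTiter-Glo chemiluminescence; mock-infected cells run in parallel.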

First: Cc1cc2ccc(C#CC3(O)CCOCC3)cc2c(-c2ccc(Cl)cc2)c1C(OC(C)(C)C)C(=O)O (centres unmarked) [Compound 80, 2-tert-Butoxy-2-(1-(4-chlorophenyl)-7-((4-hydroxytetrahydro-2H-pyran-4-yl)ethynyl)-3-methylnaphthalen-2-yl)acetic acid]
Second: Cc1cc2ccc(C#CC3(O)CCCCC3)cc2c(-c2ccc(Cl)cc2)c1C(OC(C)(C)C)C(=O)O (centres unmarked) [Compound 83, 2-tert-Butoxy-2-(1-(4-chlorophenyl)-7-((1-hydroxycyclohexyl)ethynyl)-3-methylnaphthalen-2-yl)acetic acid]
The EC50 of the first is 1.5-fold lower: 51 nM for the first, 78 nM for the second. The first is the more potent here.

Going from `Cc1c(C(OC(C)(C)C)C(=O)O)c(-c2ccc(Cl)cc2)c2ccccc2c1-c1cccnc1` (centres unmarked) [Compound 138, 2-tert-butoxy-2-(1-(4-chlorophenyl)-3-methyl-4-(pyridin-3-yl)naphthalen-2-yl)acetic acid] to `Cc1c(C(OC(C)(C)C)C(=O)O)c(-c2ccc(Cl)cc2)c2ccccc2c1-c1cncnc1` (centres unmarked) [Compound 139, 2-tert-Butoxy-2-(1-(4-chlorophenyl)-3-methyl-4-(pyrimidin-5-yl)naphthalen-2-yl)acetic acid], the EC50 falls from 40 nM to 10 nM (4-fold). The second is the more potent here.

First: C=Cc1c(C)c(C(OC(C)(C)C)C(=O)O)c(-c2ccc(Cl)cc2)c2ccccc12 (centres unmarked) [Compound 128, 2-tert-Butoxy-2-(1-(4-chlorophenyl)-3-methyl-4-vinylnaphthalen-2-yl)acetic acid]
Second: Cc1c(C(OC(C)(C)C)C(=O)O)c(-c2ccc(Cl)cc2)c2ccccc2c1C#CCN(C)C (centres unmarked) [Compound 131, 2-tert-Butoxy-2-(1-(4-chlorophenyl)-4-(3-(dimethylamino)prop-1-ynyl)-3-methylnaphthalen-2-yl)acetic acid]
The EC50 of the first is 85-fold higher: 5300 nM for the first, 62 nM for the second. The second is the more potent here.

Compared with `Cc1c(C(OC(C)(C)C)C(=O)O)c(-c2ccc(Cl)cc2)c2ccccc2c1CN1CCOCC1` (centres unmarked) [Compound 134, 2-tert-Butoxy-2-(1-(4-chlorophenyl)-3-methyl-4-(morpholinomethyl)naphthalen-2-yl)acetic acid], `COCc1cc2ccccc2c(-c2ccc(Cl)cc2)c1[C@H](OC(C)(C)C)C(=O)O` [Compound 28, (S)-2-tert-Butoxy-2-(1-(4-chlorophenyl)-3-(methoxymethyl)naphthalen-2-yl)acetic acid] is 2.7-fold higher in EC50: 150 nM for the first, 400 nM for the second.

Compared with `Cc1cc2ccc(C#CC(C)(C)O)cc2c(-c2ccc(Cl)cc2)c1[C@H](OC(C)(C)C)C(=O)O` [Compound 99, (S)-2-tert-Butoxy-2-(1-(4-chlorophenyl)-7-(3-hydroxy-3-methylbut-1-ynyl)-3-methylnaphthalen-2-yl)acetic acid], `Cc1cc2ccc(C#CC(C)(C)N)cc2c(-c2ccc(Cl)cc2)c1C(OC(C)(C)C)C(=O)O` (centres unmarked) [Compound 85, 2-(7-(3-Amino-3-methylbut-1-ynyl)-1-(4-chlorophenyl)-3-methylnaphthalen-2-yl)-2-tert-butoxyacetic acid] is 5.9-fold lower in EC50: 107 nM for the first, 18 nM for the second. The second is the more potent here.

First: Cc1cc2cc(-c3cnccn3)ccc2c(-c2ccc(Cl)cc2)c1[C@H](OC(C)(C)C)C(=O)O [Compound 60, (S)-2-tert-Butoxy-2-(1-(4-chlorophenyl)-3-methyl-6-(pyrazin-2-yl)naphthalen-2-yl)acetic acid]
Second: Cc1cc2cc(-c3ccccn3)ccc2c(-c2ccc(Cl)cc2)c1[C@H](OC(C)(C)C)C(=O)O [Compound 63, (S)-2-tert-Butoxy-2-(1-(4-chlorophenyl)-3-methyl-6-(pyridin-2-yl)naphthalen-2-yl)acetic acid]
The EC50 of the first is 3.1-fold lower: 32 nM for the first, 99 nM for the second.

First: Cc1cc2cc(C#N)c(F)cc2c(-c2ccc3c4c(ccnc24)CCO3)c1[C@H](OC(C)(C)C)C(=O)O (atropisomer, axis not shown) [Compound 169]
Second: Cc1cc2cc(Cl)c(F)cc2c(-c2ccc3c4c(ccnc24)CCO3)c1[C@H](OC(C)(C)C)C(=O)O (atropisomer, axis not shown) [Compound 171]
The EC50 of the first is 2-fold lower: 18000 nM for the first, 36000 nM for the second. The first is the more potent here.

Going from `Cc1cc2c(-c3cncnc3)cc(F)cc2c(-c2ccc3c4c(ccnc24)CCO3)c1[C@H](OC(C)(C)C)C(=O)O` (atropisomer, axis not shown) [Compound 153] to `Cc1cc2c(F)cc(F)cc2c(-c2ccc3c4c(ccnc24)CCO3)c1[C@H](OC(C)(C)C)C(=O)O` (atropisomer, axis not shown) [Compound 172], the EC50 rises from 11000 nM to 50000 nM (4.5-fold). The first is the more potent here.

`Cc1cc2cc(-c3ccncc3)ccc2c(-c2ccc(Cl)cc2)c1[C@H](OC(C)(C)C)C(=O)O` [Compound 53, (S)-2-tert-Butoxy-2-(1-(4-chlorophenyl)-3-methyl-6-(pyridin-4-yl)naphthalen-2-yl)acetic acid] and `Cc1c(C(OC(C)(C)C)C(=O)O)c(-c2ccc(Cl)cc2)c2ccccc2c1-c1ccc(N(C)C)nc1` (centres unmarked) [Compound 137, 2-tert-Butoxy-2-(1-(4-chlorophenyl)-4-(6-(dimethylamino)pyridin-3-yl)-3-methylnaphthalen-2-yl)acetic acid] are within 1.5-fold of each other in EC50: 120 nM for the first, 130 nM for the second.

`CCC(O)(C#Cc1ccc2cc(C)c(C(OC(C)(C)C)C(=O)O)c(-c3ccc(Cl)cc3)c2c1)CC` (centres unmarked) [Compound 82, 2-tert-Butoxy-2-(1-(4-chlorophenyl)-7-(3-ethyl-3-hydroxypent-1-ynyl)-3-methylnaphthalen-2-yl)acetic acid] gave an EC50 of 58 nM.

Same assay, conditions: MT-4 cells infected with HIV-IIIb (0.004 m.o.i.), 5 days of incubation, CellTiter-Glo chemiluminescence readout; read-out: EC50

Going from `Cc1cc2cc(C#N)c(F)cc2c(-c2ccc3c4c(ccnc24)CCO3)c1[C@H](OC(C)(C)C)C(=O)O` [Compound 106A, (S)-2-tert-Butoxy-2-((R)-6-cyano-1-(2,3-dihydropyrano[4,3,2-de]quinolin-7-yl)-7-fluoro-3-methylnaphthalen-2-yl)acetic acid] to `Cc1cc2cc(C3CC3)c(F)cc2c(-c2ccc3c4c(ccnc24)CCO3)c1[C@H](OC(C)(C)C)C(=O)O` [Compound 105, (S)-2-tert-Butoxy-2-((R)-6-cyclopropyl-1-(2,3-dihydropyrano[4,3,2de]quinolin-7-yl)-7-fluoro-3-methylnaphthalen-2-yl)acetic acid], the EC50 falls from 86 nM to 43 nM (2-fold). The second is the more potent here.

First: Cc1cc2c(-c3cncnc3)cc(F)cc2c(-c2ccc3c4c(ccnc24)CCO3)c1[C@H](OC(C)(C)C)C(=O)O [Compound 114, (S)-2-tert-butoxy-2-((R)-1-(2,3-dihydropyrano[4,3,2-de]quinolin-7-yl)-7-fluoro-3-methyl-5-(pyrimidin-5-yl)naphthalen-2-yl)acetic acid]
Second: Cc1cc2ccccc2c(-c2ccc3c4c(ccnc24)CCO3)c1[C@H](OC(C)(C)C)C(=O)O [Compound 5K, (S)-2-tert-Butoxy-2-((S)-1-(2,3-dihydropyrano[4,3,2-de]quinolin-7-yl)-3-methylnaphthalen-2-yl)acetic acid]
The EC50 of the first is 2.4-fold lower: 1900 nM for the first, 4600 nM for the second.

Going from `Cc1cc2ccccc2c(-c2ccc(C(F)(F)F)c3cccnc23)c1[C@H](OC(C)(C)C)C(=O)O` [Compound 7E, (S)-2-tert-butoxy-2-((S)-3-methyl-1-(5-(trifluoromethyl)quinolin-8-yl)naphthalen-2-yl)acetic acid] to `Cc1cc2ccccc2c(-c2cc(F)cc3cccnc23)c1[C@H](OC(C)(C)C)C(=O)O` [Compound 159], the EC50 falls from 20000 nM to 1300 nM (15-fold). The second is the more potent here.

`Cc1cc2ccccc2c(-c2ccc3c4c(ccnc24)CCO3)c1[C@H](OC(C)(C)C)C(=O)O` [Compound 161] showed an EC50 of 4700 nM.
